Laboratory results as given in US20090163490A1, “Pyrrolopyrimidine Derivatives Used As HSP90 Inhibitors” (VERNALIS (R&D) LTD., priority 2006, published 2009).
pIC50: −log10 of the molar value.

Target: T1, human full-length HSP90 (Homo sapiens, UniProt P08238)
T1 construct: E. coli expressed human full-length HSP90 protein, purified >95%; made in house; host or cells: E. coli
Experiment: Fluorescence polarization (FP) binding assay
Settings: competitive displacement of fluorescein-labelled probe from human full-length HSP90; activity range; read-out: ACTIVITY* (Activity in the FP binding assay)
From the text: Fluorescence Polarization Assay
Fluorescence polarization {also known as fluorescence anisotropy} measures the rotation of a fluorescing species in solution, where the larger molecule the more polarized the fluorescence emission. When the fluorophore is excited with polarized light, the emitted light is also polarized. The molecular size is proportional to the polarization of the fluorescence emission.
The fluoroscein-labelled probe—
binds to HSP90 {full-length human, full-length yeast or N-terminal domain HSP90} and the anisotropy {rotation of the probe:protein complex} is measured.
Test compound is added to the assay plate, left to equilibrate and the anisotropy measured again. Any change in anisotropy is due to competitive binding of compound to HSP90, thereby releasing probe.
Stored at room temperature. • 3) BSA (bovine serum albumen) 10 mg/ml (New England Biolabs # B9001S) • 4) 20 mM probe in 100% DMSO stock concentration. Stored in the dark at RT. Working concentration is 200 nM diluted in AR water and stored at 4° C.
• 1) Add 100 μl×buffer to wells 1A and 12A(=FP BLNK) • 2) Prepare assay mix—all reagents are kept on ice with a lid on the bucket as the probe is light-sensitive.
• 3) Aliquot 100 μl assay mix to all other wells • 4) Seal plate and leave in dark at room temp for 20 minutes to equilibrate
This gives 2.5 mM {50×} stock cpd−assuming cpds 20 mM. • 4) Repeat for wells A2 to A10. Control in columns 11 and 12. • 5) Transfer 5 μl from row A to row B—not column 12. Mix well. • 6) Transfer 5 μl from row B to row C. […] Add 2 μl of 100 mM standard cpd to wells B12-H12 {is positive control} • 13) The Z′ factor is calculated from zero controls and positive wells.

T1 sequence (P08238 whole entry): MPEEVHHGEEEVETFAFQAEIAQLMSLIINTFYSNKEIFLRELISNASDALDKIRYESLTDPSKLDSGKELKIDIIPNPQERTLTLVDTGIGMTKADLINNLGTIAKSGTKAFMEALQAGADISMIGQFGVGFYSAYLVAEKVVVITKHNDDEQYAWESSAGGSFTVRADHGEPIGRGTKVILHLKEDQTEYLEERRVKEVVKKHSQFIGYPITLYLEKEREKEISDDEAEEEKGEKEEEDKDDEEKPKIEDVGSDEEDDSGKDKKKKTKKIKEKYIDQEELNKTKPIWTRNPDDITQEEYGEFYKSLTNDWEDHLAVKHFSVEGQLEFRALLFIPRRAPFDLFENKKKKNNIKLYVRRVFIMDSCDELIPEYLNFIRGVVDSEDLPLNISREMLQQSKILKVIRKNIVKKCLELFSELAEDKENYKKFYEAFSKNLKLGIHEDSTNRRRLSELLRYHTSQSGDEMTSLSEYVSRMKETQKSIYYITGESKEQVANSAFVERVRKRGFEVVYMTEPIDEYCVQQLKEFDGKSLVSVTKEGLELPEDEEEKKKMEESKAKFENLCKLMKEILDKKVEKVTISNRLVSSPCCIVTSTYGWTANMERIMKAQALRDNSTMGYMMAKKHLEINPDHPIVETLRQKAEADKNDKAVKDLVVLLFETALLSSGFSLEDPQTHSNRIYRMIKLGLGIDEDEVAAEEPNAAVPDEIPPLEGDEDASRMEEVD

| pIC50 | SMILES |
| --- | --- |
| > 6.30 | COc1cc(Cl)c(-c2nc(SC(C)C)nc3[nH]cc(C#N)c23)cc1OCCN1CCC(F)(F)CC1 [Example 76] |
| > 6.30 | COc1cc(Cl)c(-c2nc(Cc3ccccc3)nc3[nH]cc(C#N)c23)cc1OC [Example 87] |
| > 6.30 | COc1cc(-c2nc(OCCN3CCCC(F)C3)nc3[nH]cc(C#N)c23)c(Cl)cc1C#N (centres unmarked) [Example 63] |
| > 6.30 | COc1cc(Cl)c(-c2nc(OCCN3CC[C@@H](F)C3)nc3[nH]cc(C#N)c23)cc1OC [Example 65] |
| > 6.30 | COc1cc(Cl)c(-c2nc(Oc3ccccc3)nc3[nH]cc(C#N)c23)cc1OC [Example 86] |
| > 6.30 | COc1cc(Cl)c(-c2nc(SC)nc3[nH]cc(C#N)c23)cc1OCCN1CC[C@H](F)C1 [Example 73] |
| > 6.30 | CCN(CC)CCOc1nc(-c2cc(OC)c(OC)cc2Cl)c2c(C#N)c[nH]c2n1 [Example 56] |
| > 6.30 | CCN(CC)CCOc1cc(-c2nc(Sc3nccs3)nc3[nH]cc(C#N)c23)c(Cl)cc1OC [Example 92] |
| > 6.30 | COc1cc(Cl)c(-c2nc(SC)nc3[nH]cc(C#N)c23)cc1OCCN1CCC(F)(F)CC1 [Example 64] |
| > 6.30 | COc1cc(Cl)c(-c2nc(SC(C)C)nc3[nH]cc(C#N)c23)cc1OCCN1CCC(F)(F)C1 [Example 75] |
| > 6.30 | CCN(CC)CCOc1cc(-c2nc(OC(C)C)nc3[nH]cc(C#N)c23)c(Cl)cc1OC [Example 79] |
| > 6.30 | CCOC(=O)C(C)Sc1nc(-c2cc(OCCN3CCC(F)(F)C3)c(OC)cc2Cl)c2c(C#N)c[nH]c2n1 (centres unmarked) [Example 88] |
| > 6.30 | COc1cc(Cl)c(-c2nc(OCCN3CCC(F)CC3)nc3[nH]cc(C#N)c23)cc1OC [Example 71] |
| > 6.30 | COc1cc(Cl)c(-c2nc(SC(C)(C)C)nc3[nH]cc(C#N)c23)cc1OCCN1CC[C@@H](F)C1 [Example 78] |
| > 6.30 | COc1cc(Cl)c(-c2nc(Sc3ccccc3)nc3[nH]cc(C#N)c23)cc1OC [Example 84] |

Same assay, conditions: competitive displacement of fluorescein-labelled probe from human full-length HSP90; activity range; read-out: activity in the fluorescence polarization assay

| pIC50 | SMILES |
| --- | --- |
| > 6.30 | CNC(=O)CSc1nc(-c2ccc(F)cc2C)c2c(C#N)c[nH]c2n1 [Example 38, 2-[5-Cyano-4-(4-fluoro-2-methyl-phenyl)-7H-pyrrolo[2,3-d]pyrimidin-2-ylsulfanyl]-N-methyl-acetamide] |
| > 6.30 | CSc1nc(-c2ccccc2)c2c(C#N)c[nH]c2n1 [Example 2, 2-methylsulfanyl-4-phenyl-7H-pyrrolo[2,3-d]pyrimidine-5-carbonitrile] |
| > 6.30 | Cc1ccc(-c2nc(Cl)nc3[nH]cc(C#N)c23)c(C)c1 [Example 8, 2-Chloro-4-(2,4-dimethyl-phenyl)-7H-pyrrolo[2,3-d]pyrimidine-5-carbonitrile] |
| 5.00 to 6.30 | CCN(CC)CC[S+]([O-])c1nc(-c2cc(OC)c(OC)cc2Cl)c2c(C#N)c[nH]c2n1 (centres unmarked) [Example 46, 4-(2-Chloro-4,5-dimethoxy-phenyl)-2-(2-diethylamino-ethanesulfinyl)-7H-pyrrolo[2,3-d]pyrimidine-5-carbonitrile] |
| 5.00 to 6.30 | COc1ccc(-c2nc(OCCN3CC[C@H](F)C3)nc3[nH]cc(C#N)c23)cc1OC [Example 34, 4-(3,4-Dimethoxy-phenyl)-2-[2-(3(S)-fluoro-pyrrolidin-1-yl)-ethoxy]-7H-pyrrolo[2,3-d]pyrimidine-5-carbonitrile] |
| > 6.30 | CCN(CC)CCOc1cc(-c2nc(SC(C)C)nc3[nH]cc(C#N)c23)c(Cl)cc1OC [Example 45, 4-[2-Chloro-5-(2-diethylamino-ethoxy)-4-methoxy-phenyl]-2-isopropylsulfanyl-7H-pyrrolo[2,3-d]pyrimidine-5-carbonitrile] |
| < 5.00 | Cc1cc(F)ccc1-c1nc(OCCN2CCCC2)nc2[nH]cc(C#N)c12 [Example 13, 4-(4-Fluoro-2-methyl-phenyl)-2-(2-pyrrolidin-1-yl-ethoxy)-7H-pyrrolo[2,3-d]pyrimidine-5-carbonitrile] |
| > 6.30 | CCN(CC)CCOc1cc(-c2nc(SC)nc3[nH]cc(C#N)c23)c(Cl)cc1Cl [Example 27, 4-[2,4-Dichloro-5-(2-diethylamino-ethoxy)-phenyl]-2-methylsulfanyl-7H-pyrrolo[2,3-d]pyrimidine-5-carbonitrile] |
| 5.00 to 6.30 | CSc1nc(-c2ccc(C)cc2C)c2c(Br)c[nH]c2n1 [Example 5, 5-Bromo-4-(2,4-dimethyl-phenyl)-2-methylsulfanyl-7H-pyrrolo[2,3-d]pyrimidine] |
| > 6.30 | CSc1nc(-c2ccc(C)cc2C)c2c(C#N)c[nH]c2n1 [Example 1, 4-(2,4-dimethyl-phenyl)-2-methylsulfanyl-7H-pyrrolo[2,3-d]pyrimidine-5-carbonitrile] |
| 5.00 to 6.30 | Cc1cc(F)ccc1-c1nc(OCCN2CCCC2=O)nc2[nH]cc(C#N)c12 [Example 15, 4-(4-Fluoro-2-methyl-phenyl)-2-[2-(2-oxo-pyrrolidin-1-yl)-ethoxy]-7H-pyrrolo[2,3-d]pyrimidine-5-carbonitrile] |
| > 6.30 | COc1cc(-c2nc(SC)nc3[nH]cc(C#N)c23)c(Cl)cc1C#N [Example 42, 4-(2-Chloro-4-cyano-5-methoxy)-2-methylsulfanyl-7H-pyrrolo[2,3-d]pyrimidine-5-carbonitrile] |
| > 6.30 | CCN(CC)CCSc1nc(-c2cc(OC)c(C#N)cc2Cl)c2c(C#N)c[nH]c2n1 [Example 37, 4-(2-Chloro-4-cyano-5-methoxy-phenyl)-2-(2-diethylamino-ethylsulfanyl)-7H-pyrrolo[2,3-d]pyrimidine-5-carbonitrile] |
| > 6.30 | Cc1cc(F)ccc1-c1nc(SCCO)nc2[nH]cc(C#N)c12 [Example 20, 4-(4-Fluoro-2-methyl-phenyl)-2-(2-hydroxy-ethylsulfanyl)-7H-pyrrolo[2,3-d]pyrimidine-5-carbonitrile] |
| 5.00 to 6.30 | COc1cc(Cl)c(-c2nc(S(C)(=O)=O)nc3[nH]cc(C#N)c23)cc1OC [Example 48, 4-(2-Chloro-4,5-dimethoxy-phenyl)-2-methanesulfonyl-7H-pyrrolo[2,3-d]pyrimidine-5-carbonitrile] |
| < 5.00 | CSc1nc(-c2ccc3c(c2)OCCO3)c2c(C#N)c[nH]c2n1 [Example 43, 4-(2,3-Dihydro-benzo[1,4]dioxin-6-yl)-2-methylsulfanyl-7H-pyrrolo[2,3-d]pyrimidine-5-carbonitrile] |
| > 6.30 | COc1ccc(-c2nc(OCCN3CCC(F)(F)CC3)nc3[nH]cc(C#N)c23)cc1OC [Example 32, 4-(4,5-Dimethoxy-phenyl)-2-[2-(4,4-difluoro-piperidin-1-yl)-ethoxy]-7H-pyrrolo[2,3-d]pyrimidine-5-carbonitrile] |
| 5.00 to 6.30 | CCc1nc(-c2ccc(F)cc2C)c2c(C#N)c[nH]c2n1 [Example 18, 2-Ethyl-4-(4-fluoro-2-methyl-phenyl)-7H-pyrrolo[2,3-d]pyrimidine-5-carbonitrile] |
| 5.00 to 6.30 | Cc1cc(F)ccc1-c1nc(OCCN2CCOCC2)nc2[nH]cc(C#N)c12 [Example 14, 4-(4-Fluoro-2-methyl-phenyl)-2-(2-morpholin-4-yl-ethoxy)-7H-pyrrolo[2,3-d]pyrimidine-5-carbonitrile] |
| > 6.30 | CCOC(=O)CSc1nc(-c2cc(OCCN3CCC(F)(F)C3)c(OC)cc2Cl)c2c(C#N)c[nH]c2n1 [Example 49, (4-{2-Chloro-5-[2-(3,3-difluoro-pyrrolidin-1-yl)-ethoxy]-4-methoxy-phenyl}-5-cyano-7H-pyrrolo[2,3-d]pyrimidin-2-ylsulfanyl)-acetic Acid Ethyl Ester] |
